Experimental data from patent publication US20250122164A1, “N,N-[…] ANALOGS FOR TREATING BRAIN DISORDERS” (The Regents of the University of California, priority 2021, published 2025).
Entries after “also recorded” stand apart in the source; their conditions may differ.

Tests used:
[1] = patients, SR-MDMA paired psychotherapy; 25% in placebo group; cited from earlier work
[2] = test system: rat cortical neurons; experiment: Dendritogenesis (Sholl analysis) in cultured cortical neurons; assay type: cell-based; settings: for dendritic complexity (Sholl analysis, Nmax): DIV 6 rat cortical cultures, 72-hours treatment, 10 uM and 100 nM, vs VEH; for dendritogenesis effect after ketanserin pretreatment: KTSN added 30 minutes before, 10-fold excess, DIV 6, 72-hours; for dendritic arbor complexity (Sholl analysis): increasing concentrations, efficacy in the nanomolar range
Description: For the dendritogenesis experiments conducted using cultured cortical neurons, E18 timed pregnant Sprague Dawley rats were obtained from Charles River Laboratories. Full culturing, staining and analysis experiments were performed as previously described with the exception that there was no media change during treatments. Dendrites were visualized using a chicken anti-MAP2 antibody (1:10,000; EnCor, CPCA-MAP2) as previously reported. DMSO and ketamine […] were used as vehicle and positive controls, respectively. For blocking experiments, ketanserin was added 30-minutes prior to addition of agonists in 10-fold excess.
(§1) Statistical Analysis. Appropriate samples sizes were estimated based on our previous experiences performing similar experiments. Treatments were randomized, and data were analyzed by experimenters blinded to treatment conditions. All comparisons were planned prior to performing each experiment. Statistical analyses were performed using GraphPad Prism (v.8.1.2). Data are represented as mean±s.e.m., unless otherwise noted, with asterisks indicating *P<0.05, **P<0.01, ***P<0.001 and ****P<0.0001.

[3] = Body temperature assay (IR thermometer); assay type: in vivo, mice; settings: for increase in body temperature (hyperthermia): 12.5, 25, 50 mg/kg i.p., measured for 2-hours
Description: (§2) The head-twitch response assay was performed as described previously using both male and female C57BL/6J mice (3 each per treatment). The mice were obtained from Jackson Laboratory and were approximately 9 weeks old at the time of the experiments. Before injecting the mice, their baseline temperature was measured using an IR thermometer as described. Compounds were administered via intraperitoneal (i.p.) injection (5 ml kg-1) using 0.9% saline as the vehicle. Immediately after the animals were placed in an arena for 30-minutes where their locomotor activity was assessed using AnyMaze automated tracking software. The behavior was also videotaped and later scored by two blind overserves for head-twitch responses, the results were averaged. Upon completion of the novelty induced locomotion assay their temperature was measured at the 30-minute mark. The mice were then transferred to a holding cage with their other treatment matched cage mates and their temperature was measured at the 90 and 120-minute mark.

[4] = test system: 5-HT2A biosensor; experiment: psychLight 5-HT2A biosensor in cultured cortical neurons; assay type: cell-based; settings: DIV 10-14 rat cortical neurons, 10 uM, vs vehicle
Description: E18 rat cortical neurons were plated at 60,000 cells/well in glass 96-well plates (P96-1.5H-N, Cellvis) coated with poly-D-lysine (Sigma, P6407-5MG). At day in vitro (DIV) 3-7 neurons were infected with AAV9_hSynapsin_psychLight2 (Neurophotonics-Viral Vector Core) or AAV9-hsyn-GRAB_5-HT1.0 (Addgene, 140552-AAV9) at an MOI of 70,000. Neurons were kept in the incubator for one week to allow for viral expression. On imaging day (DIV 10-14), media was aspirated and wells were washed (1×200 μL) with HBSS supplemented with 2 mM MgCl2 and 2 mM CaCl2. 50 μL HBSS was added to the wells of the assay plate and then imaged on a CellInsight CX7 HCA Platform (Thermo Fisher, CX7A1110) configured with a onstage incubator for live cell imaging (Thermo Fisher, NX7LIVE001) at 40×(N.A.=0.60) with 25 regions of interest (ROI) taken per well using an arbitrary ROI pattern for each well with no bias to location and no overlap of the ROIs (exposure=400 ms, LED power=100%). […]
Images were then analyzed using ImageJ by selecting ROIs surrounding individual neuronal cell bodies of the post-treatment images and recording the mean fluorescence, the same ROIs were applied to the pretreatment images to record the mean fluorescence. The […] values were calculated as previously reported.

[5] = test system: rat cortical neurons; experiment: Spinogenesis (dendritic spine density) in mature cortical cultures; assay type: cell-based; settings: for dendritic spine density: DIV 15 rat cortical neurons, 24-hours treatment; for spinogenesis effect after ketanserin pretreatment: KTSN 30-minute pretreatment, 10-fold excess, DIV 15, 24-hours
Description: Spinogenesis experiments were performed as previously described with the exception that cells were treated at DIV14 instead of DIV18 and then fixed on DIV15. The images were taken on a Nikon HCA Confocal microscope a with a 100x/NA 1.45 oil objective. DMSO and ketamine […] were used as vehicle and positive controls, respectively. For blocking experiments, ketanserin was added 30-minutes prior to addition of agonists in 10-fold excess.
as §1

[6] = target: T1, SERT (Homo sapiens, UniProt P31645); experiment: SERT efflux: [3H]5-HT release from SERT expressing HEK293T cells; assay type: cell-based; settings: HEK293T cells transiently expressing SERT, 10 pM-100 uM
T1 construct: host or cells: HEK293T cells, transient transfection with Lipofectamine 3000
Description: HEK293T cells were grown in Dulbecco's Modified Eagle Media (DMEM) supplemented with 10% fetal bovine serum (FBS) and 1% penicillin-streptomycin. 24 hours prior to the experiment, cells were plated in 24-well plates at a density of 150,000 cells/well and concurrently transfected using Lipofectamine 3000 according to the manufacturer's protocol. Cells were transfected with hSERT-N1-pEYFP (Addgene #70105) or a GFP control plasmid (Lonza pmaxGFP vector). The next day the wells were washed (1×500 μL) with 1× Hank's Balanced Salt Solution supplemented with 2 mM MgCl2 and 2 mM CaCl2 (HBSS) and the plate was placed on a 37° C. water bath for the remainder of the experiment. 250 μL of HBSS containing 10 nM 5-[1,2-3H[N]]-hydroxytryptamine creatinine sulfate (NET498001MC, Lot: 2902700) was added to the wells and incubated for 15 minutes, allowing uptake into SERT expressing HEK cells. Uptake was terminated by aspiration of wells followed by washes (3×500 μL) with HBSS. […] 200 μL of media was collected from each well and placed into a scintillation vial containing 1 mL PerkinElmer Ultima Gold™ scintillation cocktail to serve as the efflux fraction. […] Radioactivity in the form of disintegrations per minute (DPM) was determined the following day with the use of a Beckman LS 6000 liquid scintillation counter. […] The GFP control cells were checked to ensure radioactivity was below background levels.

[7] = Head-twitch response (HTR) assay; assay type: in vivo, mice; settings: first 20-minutes in novel arena; 12.5, 25, 50 mg/kg i.p.
Description: as §2

[8] = Tail suspension test; assay type: in vivo, mice; settings: i.p. injection, tested after 24 h, vs vehicle
Description: Male C57/BL6J mice (9-10 weeks of age at time of experiment) were obtained from the Jackson Lab and housed in a UCD vivarium. […] All experiments were carried out by the same experimenter who performed the handling. Twenty-four hours after treatments, animals were subjected to a tail suspension test. Animals were suspended from their tails approximately 16 cm from the top of the apparatus and 25 cm from the bottom of the apparatus. Behavior was video recorded for 6 min and analyzed later by an experimenter blinded to treatment conditions. Immobility was defined as the amount of time spent not struggling or attempting to generate momentum and was scored for the entire 6 min period. All TST sessions were performed between the hours of 08:00 and 13:00.

[9] = Cued fear conditioning / fear extinction; assay type: in vivo, mice; settings: for fear extinction test curve vs vehicle: 12.5 and 25 mg/kg curves; for freezing during extinction training (day 2): 12.5 and 25 mg/kg i.p. 30-min before extinction training; for conditioned freezing on extinction testing day (24-hours later, drug-free): treatment i.p. 30-min before extinction training on day 2, 16 CS tones
Source text: Mice were exposed to cued fear conditioning on day 1, fear extinction training on day 2 and extinction testing on Day 3. Mice were habituated to handling for 3 days before experimentation. On the day of the experiment mice were allowed to habituate to the behavior room for 1-hour before beginning the experiment. 15-minutes before starting the experiment, mice were separated out into individual holding cages.
Cued fear conditioning consisted of six pairings of a CS auditory cue (80-85 dB white noise, 15 s) and a co-terminating US footshock (0.85 mA and 2 s), each spaced 1.5 minutes apart. The fear conditioning apparatus (Med Associates model #MED-VFC2-SCT-R) consisted of a 30.5 cm×24.1 cm×21 cm internal soundproof chamber, with metal grated floors, an infrared camera, a sound generator, and a light source. Mice were initially placed in the conditioning apparatus and the first 1.5 minutes were stimulus free. After the last shock, the animals remained in the chambers for an additional 2 min before being returned to their home cages. […] Freezing responses for fear conditioning (day 1) are presented as the percentage of time spent freezing during the last 1.5 minutes after the last shock. The apparatus was cleaned with 70% EtOH in between trials.
Cued fear memory was assessed by exposing the animals to a novel context (lights off, A-frame insert, smooth plastic floor insert, additional vanilla odor) for 2 min prior to 16 presentations of auditory cues (80 dB white noise, 15 s) spaced 15 s apart. Freezing responses for cue testing (day 2 and 3) are presented as the percentage of time spent freezing during the tone presentations. The procedure was repeated on day 3 in the absence of drug.
Fear conditioning experiments were performed between the hours of 08:00-11:00. Freezing behavior was scored using Med Associates Video Freeze software v2.25 (motion threshold=100 au, detection method=linear, minimum freeze duration=15 frames, which is equal to a 0.5 s freeze). The apparatus was cleaned with 70% EtOH in between trials on day 1 and Sani-cloth gemicidal disposable cloths (PDI, Q89072) were used to clean the apparatus on days 2 and 3.

[10] = Novelty induced locomotion (NIL) test; assay type: in vivo, mice; settings: for locomotion at the lower doses: 12.5 mg/kg and 25 mg/kg; for locomotion at highest dose: 50 mg/kg i.p., vs vehicle; for locomotion (total distance) in novel arena, dose dependence / time spent in the center of the arena: 12.5, 25, 50 mg/kg i.p., 30-minutes
Description: as §2

[11] = target: T1, SERT; settings: other studies; cited from earlier work

T1 sequence (P31645 whole entry): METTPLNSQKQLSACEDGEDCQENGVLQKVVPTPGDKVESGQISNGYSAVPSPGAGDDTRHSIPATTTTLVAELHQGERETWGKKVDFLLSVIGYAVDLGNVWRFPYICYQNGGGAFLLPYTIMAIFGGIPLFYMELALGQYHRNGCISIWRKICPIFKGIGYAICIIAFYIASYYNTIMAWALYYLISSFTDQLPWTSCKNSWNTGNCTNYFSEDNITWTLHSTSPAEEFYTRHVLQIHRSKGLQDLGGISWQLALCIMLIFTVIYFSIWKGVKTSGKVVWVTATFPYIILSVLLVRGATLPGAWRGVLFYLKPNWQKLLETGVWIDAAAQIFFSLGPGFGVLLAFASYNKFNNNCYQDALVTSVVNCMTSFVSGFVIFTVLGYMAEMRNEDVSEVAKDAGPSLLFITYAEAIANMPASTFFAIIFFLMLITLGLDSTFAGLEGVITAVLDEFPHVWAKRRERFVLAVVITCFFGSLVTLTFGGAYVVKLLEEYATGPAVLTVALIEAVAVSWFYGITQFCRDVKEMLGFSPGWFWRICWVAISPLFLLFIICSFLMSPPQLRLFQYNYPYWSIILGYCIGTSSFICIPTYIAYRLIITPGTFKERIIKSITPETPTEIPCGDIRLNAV

Compound	dendritic complexity (Sholl analysis, Nmax) [2]	dendritogenesis effect after ketanserin pretreatment [2]	dendritic arbor complexity (Sholl analysis) [2]	increase in body temperature (hyperthermia) [3]	psychlight 5-HT2A biosensor response [4]	dendritic spine density [5]	spinogenesis effect after ketanserin pretreatment [5]	head twitch response (hallucinogenic potential) [7]	fear extinction test curve vs vehicle [9]	freezing during extinction training (day 2) [9]	conditioned freezing on extinction testing day (24-hours later, drug-free) [9]	locomotion at the lower doses [10]	locomotion at highest dose [10]	locomotion (total distance) in novel arena, dose dependence [10]	time spent in the center of the arena [10]	further results
CNC(C)Cc1ccc2c(c1)OCO2 (racemic) [SR-MDMA, S,R(+/−)-3,4-methylenedioxymethamphetamine]																response rate in decreasing the symptoms of PTSD [1]: 83%
C[C@H](Cc1ccc2c(c1)OCO2)N(C)C [LED, (R)-1-(benzo[d][1,3]dioxol-5-yl)-N,N-dimethylpropan-2-amine]	increases in dendritic complexity	blocked by ketanserin	robustly increased dendritic arbor complexity	Neither compound induced any increases in body temperature	Neither LED nor R-MDMA induced a significant response	increases dendritic spine density	KTSN blocks the spinogenesis effects	Neither compound elicited a significant HTR	statistically lower than the vehicle control curve	neither dose influenced freezing during extinction training	the 12.5 mg/kg dose of LED resulted in reduced freezing on testing day	neither of them altered changes in locomotion or had psychostimulant properties	significant decrease in locomotion	dose dependent decrease in locomotion	only the highest doss caused a decrease in time spent in the center	promotion of plasticity (Sholl analysis), comparison of enantiomers and racemates ([2]; cultured cortical neurons, FIG. 5, listed as R-MDDMA): more effect at promoting plasticity than either the S-enantiomer or the racemic mixture; also recorded: more effective than racemic MDMA; body temperature relative to vehicle ([3]; 50 mg/kg i.p., 30-minute time point): significant decrease in temperature; [3H]5-HT release (efflux) [6]: failed to induce [^3H]5-HT release; antidepressant behavioral effect (tail suspension test immobility) [8]: produces antidepressant behavioral effects; fear extinction, females only ([9]; separated by sex, females): females display enhanced extinction with the 12.5 mg/kg dose; fear extinction, males only ([9]; separated by sex, males): males display enhanced extinction with the 25 mg/kg dose
CC(Cc1ccc2c(c1)OCO2)N(C)C (racemic) [racemic version of LED]																5-HT uptake inhibition and release [11]: moderate ability to inhibit uptake of 5-HT as well as promote its release
R-3,4-Methylenedioxy methamphetamine [R-MDMA, reference compound]	increases in dendritic complexity	blocked by ketanserin	robustly increased dendritic arbor complexity	Neither compound induced any increases in body temperature	Neither LED nor R-MDMA induced a significant response	increases dendritic spine density, comparably to R-MDMA	KTSN blocks the spinogenesis effects	Neither compound elicited a significant HTR	statistically lower than vehicle control	decreased freezing during extinction training and testing	decreased freezing during extinction training and testing	neither of them altered changes in locomotion or had psychostimulant properties	exhibits psychostimulant effects	dose dependent increase in locomotion	all doses decreased time spent in the center	
